Common to all, as to assay type: in vivo
What all share (conditions): 250 g ai/ha, after three weeks

The test system of experiment [1] is Alopecurus. Put plainly: Pre-emergence test (greenhouse). The procedure: (§1) Pre-Emergence Test Solvent: 5 parts by weight of acetone Emulsifier: 1 part by weight of alkylaryl polyglycol ether To produce a suitable preparation of active compound, 1 part by weight of active compound is mixed with the stated amount of solvent, the stated amount of emulsifier is added and the concentrate is diluted with water to the desired concentration. Seeds of the test plants are sewn in normal soil. After about 24 hours, the soil is sprayed with the preparation of active compound such that the particular amounts of active compound desired are applied per unit area. The concentration of the spray liquor is chosen such that the particular amounts of active compound desired are applied in 1000 l of water/ha. After three weeks, the degree of damage to the plants is rated in % damage in comparison to the development of the untreated control. The figures denote: • 0%=no effect (like untreated control) • 100%=total destruction

In another experiment the test system is Amaranthus. Briefly: Pre-emergence test (greenhouse). Here is the method: as §1
In experiment [2] the test system is Avena fatua. Briefly: Pre-emergence test (greenhouse). The procedure:
as §1

For experiment [3], the system named is Echinochloa. Put plainly: Pre-emergence test (greenhouse). The procedure: as §1
For experiment [4], the system named is Setaria. Put plainly: Pre-emergence test (greenhouse). Here is the method: as §1
The subject of experiment [5] is Alopecurus. Briefly: Post-emergence test (greenhouse). The procedure:
(§2) Solvent: 5 parts by weight of acetone
(§3) Emulsifier: 1 part by weight of alkylaryl polyglycol ether
(§4) To produce a suitable preparation of active compound, 1 part by weight of active compound is mixed with the stated amount of solvent, the stated amount of emulsifier is added and the concentrate is diluted with water to the desired concentration.
(§5) Test plants of a height of 5-15 cm are sprayed with the preparation of active compound such that the particular amounts of active compound desired are applied per unit area. The concentration of the spray liquor is chosen such that the particular amounts of active compound desired are applied in 1000 l of water/ha.
(§6) After three weeks, the degree of damage to the plants is rated in % damage in comparison to the development of the untreated control.
(§7) The figures denote: • 0%=no effect (like untreated control) • 100%=total destruction

Experiment [6] deals with Avena fatua. Briefly: Post-emergence test (greenhouse). Here is the method:
as §2, §3, §4, §5, §6, §7

The subject of experiment [7] is Echinochloa. Briefly: Post-emergence test (greenhouse). Here is the method: as §2, §3, §4, §5, §6, §7
Experiment [8] relates to Setaria. Put plainly: Post-emergence test (greenhouse). Here is the method:
as §2, §3, §4, §5, §6, §7

For a further experiment, the system named is Sinapis. Put plainly: Post-emergence test (greenhouse). The procedure: as §2, §3, §4, §5, §6, §7

Molecules are shown by their SMILES.

The values that follow come from patent US7307044B2, “3-biphenyl-substituted-3-substituted-4-ketolactam and ketolactone and their utilization as pesticide” (Bayer CropScience AG, priority 2001, dated 2007).

Consider `COC1CCC2(CC1)NC(=O)C(Cl)(c1c(C)cc(-c3cccc(Cl)c3)cc1C)C2=O` (stereo not shown) [Ex. I-1-4], for which the “degree of damage to the plants in % damage” value with Alopecurus [1] worked out at 95%; in the experiment on Amaranthus, 90%; in the experiment with Avena fatua [2] it was 90%; in the experiment with Echinochloa [3], 100%; in the experiment on Setaria [4], 100%; in the experiment with Alopecurus [5], 100%. For the same compound, the “degree of damage to the plants in % damage” value in the experiment with Avena fatua [6] was 100%; with Echinochloa [7] it was 100%; in the experiment on Setaria [8], 100%; in the experiment with Sinapis it was 70%.
